From patent US8541455B2, “Derivatives of 2-pyridin-2-yl-pyrazol-3(2H)-one, preparation and therapeutic use thereof as HIF activators” (Sanofi, priority 2008, dated 2013) come the findings set out here.

Structures can show the parent of a compound that is named as a salt.

Usually melting point stands for the temperature, or range, at which the solid turns liquid. `CCN(c1ccccc1)S(=O)(=O)c1ccc(-n2[nH]cc(Cc3cncc(OC)c3)c2=O)nc1.Cl` displayed a melting point of 136 °C.
In the case of `CCNS(=O)(=O)c1ccc(-n2[nH]c(C)c(Cc3cccnc3)c2=O)nc1` (as salt: HCl) [Compound 89] it was 196 °C; in that of `Cc1[nH]n(-c2ccc(S(=O)(=O)Nc3ccccc3)cn2)c(=O)c1Cc1cccnc1` (as salt: HCl) [Compound 90], 154 °C.
The value for `CCN(c1ccccc1)S(=O)(=O)c1ccc(-n2[nH]cc(Cc3ccccc3)c2=O)nc1` (as salt: HCl) [Compound 93, 6-(4-benzyl-5-oxo-2,5-dihydro-1H-pyrazol-1-yl)-N-ethyl-N-phenylpyridine-3-sulfonamide] was 180 °C; that for `CCN(c1ccccc1)S(=O)(=O)c1ccc(-n2[nH]c(C)c(CC3CCN(C)CC3)c2=O)nc1` (as salt: HCl) [Compound 94] was 150 °C; that for `Cc1[nH]n(-c2ccc(S(=O)(=O)N(C)C3CC3)cn2)c(=O)c1Cc1cccnc1` (as salt: HCl) [Compound 95] was 138 °C.
In the case of `COc1cncc(Cc2c(C)[nH]n(-c3ccc(S(=O)(=O)NC(C)(C)C)cn3)c2=O)c1` (as salt: HCl) [Compound 96] it was 150 °C.
Compound `CCN(c1ccccc1)S(=O)(=O)c1ccc(-n2[nH]cc(Cc3cccnc3)c2=O)nc1` (as salt: HCl) [Compound 99] displayed a melting point of 142 °C.
The compound `CCN(C1CCCC1)S(=O)(=O)c1ccc(-n2[nH]cc(Cc3cccnc3)c2=O)nc1` (as salt: HCl) [Compound 115] came in with a melting point of 110 °C.
In the case of `CN(C1CCCC1)S(=O)(=O)c1ccc(-n2[nH]cc(Cc3cccnc3)c2=O)nc1` (as salt: HCl) [Compound 117] it was 124 °C; in that of `CCN(C1CCCC1)S(=O)(=O)c1ccc(-n2[nH]cc(Cc3ccncc3)c2=O)nc1` (as salt: HCl) [Compound 119], 115 °C; in that of `CN(C1CCCC1)S(=O)(=O)c1ccc(-n2[nH]cc(Cc3ccncc3)c2=O)nc1` (as salt: HCl) [Compound 120], 130 °C.
`CN(C)CCCN(C1CCCC1)S(=O)(=O)c1ccc(-n2[nH]cc(Cc3ccccc3)c2=O)nc1` (as salt: HCl) [Compound 123, 6-(4-benzyl-5-oxo-2,5-dihydro-1H-pyrazol-1-yl)-N-cyclopentyl-N-[3-(dimethylamino)propyl]pyridine-3-sulfonamide hydrochloride] returned a melting point of 230 °C.
The value for `COC(=O)CN(C1CCCC1)S(=O)(=O)c1ccc(-n2[nH]cc(Cc3cccnc3)c2=O)nc1` (as salt: HCl) [Compound 128, methyl N-cyclopentyl-N-({6-[5-oxo-4-(pyridin-3-ylmethyl)-2,5-dihydro-1H-pyrazol-1-yl]pyridin-3-yl}sulfonyl)glycinate hydrochloride] was 110 °C; that for `COC(=O)[C@H]1CCC[C@H]1N(C)S(=O)(=O)c1ccc(-n2[nH]cc(Cc3cccnc3)c2=O)nc1` (as salt: HCl) [Compound 131] was 156 °C; that for `CC(C)(C)CNS(=O)(=O)c1ccc(-n2[nH]cc(Cc3cccnc3)c2=O)nc1` (as salt: HCl) [Compound 136] was 123 °C.
`CCC(C)(C)NS(=O)(=O)c1ccc(-n2[nH]cc(Cc3cccnc3)c2=O)nc1` (as salt: HCl) [Compound 137] gave a melting point of 126 °C.
The value for `CN1CCC(N(C)S(=O)(=O)c2ccc(-n3[nH]cc(Cc4ccccc4)c3=O)nc2)C1` (stereo not drawn) (as salt: HCl) [Compound 139] was 130 °C; that for `COC(C)(C)CNS(=O)(=O)c1ccc(-n2[nH]cc(Cc3ccccc3)c2=O)nc1` (as salt: HCl) [Compound 141] was 194 °C; that for `COc1ccncc1Cc1c[nH]n(-c2ccc(S(=O)(=O)N(C)C3CCCC3)cn2)c1=O` (as salt: HCl) [Compound 144] was 40 °C.
In the case of `CN(C)CC(C)(C)NS(=O)(=O)c1ccc(-n2[nH]cc(Cc3ccccc3)c2=O)nc1` (as salt: HCl) [Compound 152] it was 230 °C; in that of `COC(=O)CC(c1cccnc1)c1c[nH]n(-c2ccc(S(=O)(=O)NC(C)(C)C)cn2)c1=O` (stereo not drawn) (as salt: HCl) [Compound 154, methyl 3-(2-[5-(tert-butylsulfamoyl)pyridin-2-yl]-3-oxo-2,3-dihydro-1H-pyrazol-4-yl)-3-(pyridin-3-yl)propanoate], 146 °C; in that of `COC(=O)c1ccc(-n2[nH]c(C)c(Cc3ccccc3Cl)c2=O)nc1` (as salt: HCl) [Compound 170], 258 °C.
In the case of `Cc1[nH]n(-c2ccccn2)c(=O)c1Cc1ccncc1` (as salt: HCl) [Compound 176] it was 208 °C; in that of `Cc1[nH]n(-c2ccccn2)c(=O)c1Cc1cccc(N(C)C)c1` (as salt: HCl) [Compound 190], 132 °C.
As for `CC(C)(C)OC(=O)c1ccc(-n2[nH]cc(Cc3cccnc3)c2=O)nc1` (as salt: HCl) [Compound 202], the melting point came to 160 °C.
Compound `CCN(c1ccccc1)S(=O)(=O)c1ccc(-n2[nH]c(C)c(Cc3cccnc3)c2=O)nc1` (as salt: hydrochloride) [Compound 43] had a melting point of 128 °C.
The value for `CCN(c1ccccc1)S(=O)(=O)c1ccc(-n2[nH]c(C)c(Cc3cccc(OCCN(C)C)c3)c2=O)nc1` (as salt: hydrochloride) [Compound 56, 6-(4-{3-[2-(dimethylamino)ethoxy]benzyl}-3-methyl-5-oxo-2,5-dihydro-1H-pyrazol-1-yl)-N-ethyl-N-phenylpyridine-3-sulfonamide hydrochloride] was 124 °C.
In turn, `Cc1[nH]n(-c2ccc(S(=O)(=O)N(C(C)C)C(C)C)cn2)c(=O)c1Cc1ccc(Cl)cc1Cl` [Compound 15] came in with a melting point of 226 °C.
The value for `CCN(c1ccccc1)S(=O)(=O)c1ccc(-n2[nH]c(C)c(Cc3ccc(OCCN(C)C)cc3)c2=O)nc1` [Compound 49] was 178 °C; that for `CCN(c1ccccc1)S(=O)(=O)c1ccc(-n2[nH]c(C)c(Cc3ccc(N(C)C)cc3)c2=O)nc1` [Compound 50] was 182 °C; that for `CCN(c1ccccc1)S(=O)(=O)c1ccc(-n2[nH]c(C)c(Cc3cccc(OC)c3)c2=O)nc1` [Compound 55] was 146 °C.
The value for `CCN(c1ccccc1)S(=O)(=O)c1ccc(-n2[nH]c(C)c(Cc3ccccc3OC)c2=O)nc1` [Compound 57] was 108 °C; that for `CCN(c1ccccc1)S(=O)(=O)c1ccc(-n2[nH]c(C)c(Cc3ccc(OCCOC)cc3)c2=O)nc1` [Compound 61] was 176 °C.
The value for `Cc1[nH]n(-c2ccc(S(=O)(=O)N(C)C)cn2)c(=O)c1Cc1cccnc1` [Compound 66, N,N-dimethyl-6-[3-methyl-5-oxo-4-(pyridin-3-ylmethyl)-2,5-dihydro-1H-pyrazol-1-yl]pyridine-3-sulfonamide] was 212 °C; that for `CCN(c1ccccc1)S(=O)(=O)c1ccc(-n2[nH]c(C)c(Cc3cccc(OC)n3)c2=O)nc1` [Compound 78] was 174 °C; that for `CCN(c1ccccc1)S(=O)(=O)c1ccc(-n2[nH]c(C)c(Cc3cncc(OC)c3)c2=O)nc1` [Compound 86] was 138 °C.
In the case of `CCN(c1ccccc1)S(=O)(=O)c1ccc(-n2[nH]c(C)c(Cc3cncc(C#N)c3)c2=O)nc1` [Compound 97, 6-{4-[(5-cyanopyridin-3-yl)methyl]-3-methyl-5-oxo-2,5-dihydro-1H-pyrazol-1-yl}-N-ethyl-N-phenylpyridine-3-sulfonamide], the melting point turned out to be 164 °C.
In the case of `CC(C)(C)NS(=O)(=O)c1ccc(-n2[nH]cc(Cc3cccnc3)c2=O)nc1` [Compound 98A, N-tert-butyl-6-[5-oxo-4-(pyridin-3-ylmethyl)-2,5-dihydro-1H-pyrazol-1-yl]pyridine-3-sulfonamide] it was 220 °C; in that of `CN(C(C)(C)C)S(=O)(=O)c1ccc(-n2[nH]cc(Cc3ccccc3)c2=O)nc1` [Compound 100], 186 °C; in that of `COc1cncc(Cc2c(C)[nH]n(-c3ccc(S(=O)(=O)N(C)C(C)(C)C)cn3)c2=O)c1` [Compound 102], 84 °C.
In turn, `CCN(c1ccccc1)S(=O)(=O)c1ccc(-n2[nH]c(C)c(Cc3ccc(C#N)nc3)c2=O)nc1` [Compound 103] yielded a melting point of 120 °C.
In the case of `CCN(c1ccccc1)S(=O)(=O)c1ccc(-n2[nH]cc(CC(=O)N(C)C)c2=O)nc1` [Compound 105] it was 168 °C.
The compound `CCOC(=O)Cc1[nH]n(-c2ccc(S(=O)(=O)N(CC)c3ccccc3)cn2)c(=O)c1Cc1ccccc1` [Compound 106, ethyl (4-benzyl-1-{5-[ethyl(phenyl)sulfamoyl]pyridin-2-yl}-5-oxo-2,5-dihydro-1H-pyrazol-3-yl)acetate] came in with a melting point of 156 °C.
In the case of `CCN(c1ccccc1)S(=O)(=O)c1ccc(-n2[nH]c(CC(=O)N(C)C)c(Cc3ccccc3)c2=O)nc1` [Compound 109], the melting point turned out to be 163 °C.
In the case of `CCN(c1ccccc1)S(=O)(=O)c1ccc(-n2[nH]cc(CCC(=O)O)c2=O)nc1` [Compound 110], the melting point was determined as 214 °C.
`CCN(c1ccccc1)S(=O)(=O)c1ccc(-n2[nH]c(C)c(Cc3cccc(C(=O)OC)c3)c2=O)nc1` [Compound 111] had a melting point of 172 °C.
In the case of `CCN(c1ccccc1)S(=O)(=O)c1ccc(-n2[nH]cc(CCC(=O)OC)c2=O)nc1` [Compound 112] it was 128 °C; in that of `COC(=O)C(c1ccccc1)c1c[nH]n(-c2ccc(S(=O)(=O)NC(C)(C)C)cn2)c1=O` (stereo not drawn) [Compound 113, methyl {2-[5-(tert-butylsulfamoyl)pyridin-2-yl]-3-oxo-2,3-dihydro-1H-pyrazol-4-yl}(phenyl)acetate], 66 °C; in that of `COC(=O)CC(c1ccccc1)c1c[nH]n(-c2ccc(S(=O)(=O)N(C)C3CCCC3)cn2)c1=O` (stereo not drawn) [Compound 114], 80 °C.
The value for `CCN(c1ccccc1)S(=O)(=O)c1ccc(-n2[nH]c(C)c(Cc3ccccc3C(=O)OC)c2=O)nc1` [Compound 116] was 146 °C.
